These results are taken from patent US20260055103A1, “2,3,4,9-TETRAHYDRO-1H-PYRIDO[3,4-B]INDOLE DERIVATIVES AS ESTROGEN RECEPTOR MODULATORS FOR THE TREATMENT OF CANCER” (Olema Pharmaceuticals, Inc., priority 2022, published 2026).

This assay addresses T1, estrogen receptor (Homo sapiens, UniProt P03372).
T1 construct: endogenous in cells; host or cells: ECC-1 cells
T1 sequence (P03372 1-595): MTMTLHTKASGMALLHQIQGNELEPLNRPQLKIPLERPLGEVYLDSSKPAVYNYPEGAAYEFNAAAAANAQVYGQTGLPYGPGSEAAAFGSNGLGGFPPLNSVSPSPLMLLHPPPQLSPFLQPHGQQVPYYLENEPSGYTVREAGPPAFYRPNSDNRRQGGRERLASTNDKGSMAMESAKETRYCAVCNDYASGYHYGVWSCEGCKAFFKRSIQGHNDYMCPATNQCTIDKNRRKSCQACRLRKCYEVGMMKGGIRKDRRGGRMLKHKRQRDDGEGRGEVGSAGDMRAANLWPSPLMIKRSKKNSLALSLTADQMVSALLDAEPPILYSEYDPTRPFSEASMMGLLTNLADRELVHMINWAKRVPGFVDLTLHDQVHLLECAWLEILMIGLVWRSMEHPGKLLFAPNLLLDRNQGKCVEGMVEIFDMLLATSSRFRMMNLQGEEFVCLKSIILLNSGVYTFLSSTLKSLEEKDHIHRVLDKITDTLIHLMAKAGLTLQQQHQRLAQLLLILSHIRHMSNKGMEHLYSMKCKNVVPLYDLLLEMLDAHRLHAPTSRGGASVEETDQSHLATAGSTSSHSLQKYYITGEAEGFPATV
Description: Alkaline phosphatase (AP) assay in ECC-1 cells, agonist mode (no E2) and antagonist mode (500 pM E2). It is filed as cell-based. As to conditions: 3 days, AP activity normalized to 500 pM E2 alone, agonist mode without E2, antagonist mode with 500 pM E2. On the procedure:
ECC-1 cells were trypsinized and resuspended in hormone-depleted media and plated at a density of 15 k cells per well into a 96-well plate for at least 4 hours. Cells were treated with test compounds in the absence of E2 (for agonist mode) or in the presence of 500 pM E2 (for antagonist mode) for 3 days and plates were subsequently frozen at −80° C. Thawed plates were incubated with a chromogenic substrate of AP, p-nitrophenyl phosphate (Thermo Fisher Scientific), for 40 minutes at 42° C., and absorbances were read at 405 nm. AP activity was normalized to the activity of 500 pM E2 alone.
The compound numbers correspond to the compound numbers of Table 1 and 2. Compounds having an activity designated as “+” provided estrogen receptor agonism having (i) at least 80% increase in the E2-normalized signal in the AP assay (agonist mode) and (ii) no more than 80% reduction in the E2-normalized signal in the AP assay (antagonist mode). Compounds having an activity designated as “++” provided estrogen receptor antagonism having (i) between 10% and 80% increase in the E2-normalized signal in the AP assay (agonist mode) and (ii) between 10% and 80% reduction in the E2-normalized signal in the AP assay (antagonist mode).
Turning to `C[C@@H]1Cc2c([nH]c3ccccc23)[C@@H](c2ccc(CC3CN(CCCF)C3)s2)N1CC(F)(F)C(F)(F)F` [Example I-28, (1S,3R)-1-(5-((1-(3-fluoropropyl)azetidin-3-yl)methyl)thiophen-2-yl)-3-methyl-2-(2,2,3,3,3-pentafluoropropyl)-2,3,4,9-tetrahydro-1H-pyrido[3,4-b]indole], the “Activity (estrogen receptor modulation, agonism and antagonism)” value (“Activity” below) is “++ (estrogen receptor antagonism having (i) between 10% and 80% increase in the E2-normalized signal in the AP assay (agonist mode) and (ii) between 10% and 80% reduction in the E2-normalized signal in the AP assay (antagonist mode))”.

For `C[C@@H]1Cc2c([nH]c3ccccc23)[C@@H](c2cnc(CC3CN(CCCF)C3)s2)N1CC(F)F` [Example I-29], the “Activity” value was “+++ (estrogen receptor antagonism (i) with pIC50 greater than 7.5 and at least a 10% reduction in the E2-normalized signal in the AP assay (antagonist mode); and no more than 10% increase in E2-normalized signal in the AP assay (agonist mode))”.

Consider `C[C@@H]1Cc2c([nH]c3ccccc23)[C@@H](c2cnc(C[C@H]3CCN(CCCF)C3)s2)N1CC(F)F` [Example I-30, 5-((1S,3R)-2-(2,2-difluoroethyl)-3-methyl-2,3,4,9-tetrahydro-1H-pyrido[3,4-b]indol-1-yl)-2-(((R)-1-(3-fluoropropyl)pyrrolidin-3-yl)methyl)thiazole], for which the “Activity” value was “++ (estrogen receptor antagonism having (i) between 10% and 80% increase in the E2-normalized signal in the AP assay (agonist mode) and (ii) between 10% and 80% reduction in the E2-normalized signal in the AP assay (antagonist mode))”.

Consider `C[C@@H]1Cc2c([nH]c3ccccc23)[C@@H](c2ncc(CC3CN(CCCF)C3)s2)N1CC(F)F` [Example I-31], for which the “Activity” value was “++ (estrogen receptor antagonism having (i) between 10% and 80% increase in the E2-normalized signal in the AP assay (agonist mode) and (ii) between 10% and 80% reduction in the E2-normalized signal in the AP assay (antagonist mode))”.

For the compound `CCCN1CC(Cc2cnc([C@@H]3c4[nH]c5ccccc5c4C[C@@H](C)N3CC(F)F)s2)C1` [Example I-32, 2-[(1S,3R)-2-(2,2-difluoroethyl)-3-methyl-1,3,4,9-tetrahydropyrido[3,4-b]indol-1-yl]-5-[(1-propylazetidin-3-yl)methyl]thiazole], the “Activity” value was “++ (estrogen receptor antagonism having (i) between 10% and 80% increase in the E2-normalized signal in the AP assay (agonist mode) and (ii) between 10% and 80% reduction in the E2-normalized signal in the AP assay (antagonist mode))”.

Turning to `C[C@@H]1Cc2c([nH]c3ccccc23)[C@@H](c2cnc(C[C@H]3CCN(CCCF)C3)s2)N1CC(F)(F)F` [Example I-33, 2-(((R)-1-(3-fluoropropyl)pyrrolidin-3-yl)methyl)-5-((1S,3R)-3-methyl-2-(2,2,2-trifluoroethyl)-2,3,4,9-tetrahydro-1H-pyrido[3,4-b]indol-1-yl)thiazole], the “Activity” value was “++ (estrogen receptor antagonism having (i) between 10% and 80% increase in the E2-normalized signal in the AP assay (agonist mode) and (ii) between 10% and 80% reduction in the E2-normalized signal in the AP assay (antagonist mode))”.

With `C[C@@H]1Cc2c([nH]c3ccccc23)[C@@H](c2ncc(CC3CN(CCCF)C3)s2)N1CC(F)(F)F` [Example I-34, 5-[[1-(3-fluoropropyl)azetidin-3-yl]methyl]-2-[(1S,3R)-3-methyl-2-(2,2,2-trifluoroethyl)-1,3,4,9-tetrahydropyrido[3,4-b]indol-1-yl]thiazole], the “Activity” value was “++ (estrogen receptor antagonism having (i) between 10% and 80% increase in the E2-normalized signal in the AP assay (agonist mode) and (ii) between 10% and 80% reduction in the E2-normalized signal in the AP assay (antagonist mode))”.

On to `C[C@@H]1Cc2c([nH]c3ccccc23)[C@@H](c2ncc(CC3CN(CCC(F)F)C3)s2)N1CC(F)F` [Example I-35, 2-[(1S,3R)-2-(2,2-difluoroethyl)-3-methyl-1,3,4,9-tetrahydropyrido[3,4-b]indol-1-yl]-5-[[1-(3,3-difluoropropyl)azetidin-3-yl]methyl]thiazole], for which the “Activity” value was “++ (estrogen receptor antagonism having (i) between 10% and 80% increase in the E2-normalized signal in the AP assay (agonist mode) and (ii) between 10% and 80% reduction in the E2-normalized signal in the AP assay (antagonist mode))”.

`C[C@@H]1Cc2c([nH]c3ccccc23)[C@@H](c2cnc(C[C@H]3CCN(CCCF)C3)s2)N1CC(F)(F)CO` [Example I-36, 2,2-difluoro-3-[(1S,3R)-1-[2-[[(3R)-1-(3-fluoropropyl)pyrrolidin-3-yl]methyl]thiazol-5-yl]-3-methyl-1,3,4,9-tetrahydropyrido[3,4-b]indol-2-yl]propan-1-ol]: the “Activity” value was “+ (estrogen receptor agonism having (i) at least 80% increase in the E2-normalized signal in the AP assay (agonist mode) and (ii) no more than 80% reduction in the E2-normalized signal in the AP assay (antagonist mode))”.

As to `CCCN1CC(Cc2cnc([C@@H]3c4[nH]c5ccccc5c4C[C@@H](C)N3CC(F)(F)F)s2)C1` [Example I-37, 2-[(1S,3R)-3-methyl-2-(2,2,2-trifluoroethyl)-1,3,4,9-tetrahydropyrido[3,4-b]indol-1-yl]-5-[(1-propylazetidin-3-yl)methyl]thiazole], the “Activity” value is “++ (estrogen receptor antagonism having (i) between 10% and 80% increase in the E2-normalized signal in the AP assay (agonist mode) and (ii) between 10% and 80% reduction in the E2-normalized signal in the AP assay (antagonist mode))”.

On to `C[C@@H]1Cc2c([nH]c3ccccc23)[C@@H](c2cnc(CC3CN(CCCF)C3)s2)N1CC(F)(F)F` [Example I-38, 2-[[1-(3-fluoropropyl)azetidin-3-yl]methyl]-5-[(1S,3R)-3-methyl-2-(2,2,2-trifluoroethyl)-1,3,4,9-tetrahydropyrido[3,4-b]indol-1-yl]thiazole], for which the “Activity” value is “++ (estrogen receptor antagonism having (i) between 10% and 80% increase in the E2-normalized signal in the AP assay (agonist mode) and (ii) between 10% and 80% reduction in the E2-normalized signal in the AP assay (antagonist mode))”.

In the case of `C[C@@H]1Cc2c([nH]c3ccccc23)[C@@H](c2ncc(CC3CN(CCC(F)F)C3)s2)N1CC(F)(F)F` [Example I-39, 5-[[1-(3,3-difluoropropyl)azetidin-3-yl]methyl]-2-[(1S,3R)-3-methyl-2-(2,2,2-trifluoroethyl)-1,3,4,9-tetrahydropyrido[3,4-b]indol-1-yl]thiazole], the “Activity” value was “++ (estrogen receptor antagonism having (i) between 10% and 80% increase in the E2-normalized signal in the AP assay (agonist mode) and (ii) between 10% and 80% reduction in the E2-normalized signal in the AP assay (antagonist mode))”.

On to `C[C@@H]1Cc2c([nH]c3ccccc23)[C@@H](c2cnc(CC3CN(CCCF)C3)s2)N1CC(F)(F)CO` [Example I-40, 2,2-difluoro-3-[(1S,3R)-1-[2-[[1-(3-fluoropropyl)azetidin-3-yl]methyl]thiazol-5-yl]-3-methyl-1,3,4,9-tetrahydropyrido[3,4-b]indol-2-yl]propan-1-ol], for which the “Activity” value is “+++ (estrogen receptor antagonism (i) with pIC50 greater than 7.5 and at least a 10% reduction in the E2-normalized signal in the AP assay (antagonist mode); and no more than 10% increase in E2-normalized signal in the AP assay (agonist mode))”.
